According to patent publication US11459313B2, “Aziridinyl and amino dimeric naphthoquinone compounds and use for acute myeloid leukemia” (University of Maryland, Baltimore, priority 2016, dated 2022):
Entries after “also recorded” stand apart in the source; their conditions may differ. Read-outs that look alike come from different tables or passages of the source.

Tests used:
MOLM-14 cells = assay: WST-1 cell proliferation assay, MOLM-14; type: cell-based, human; settings: Homo sapiens, cell proliferation
Procedure: (§1) Cell lines were seeded into 96-well plates the afternoon prior to treatment. Approximately 18 hours later, bis and mono-aziridine dimeric naphthoquinone compounds were semi-serially diluted in dimethyl sulfoxide (DMSO) and then growth medium, and added to cells. Plates were incubated for 72 hours prior to addition of WST-1 (Promega®). Plates were read after 4 additional hours of incubation at 37° C. using a Bio-Tek Synergy® HT plate reader (Bio-Tek®). Data were analyzed and graphed using GraphPad Prism® Software (Graph Pad®).
(§2) Primary AML cells from patients and cell lines were seeded into 96-well plates the afternoon prior to treatment. Eighteen hours later, amino-dimeric naphthoquinone Compounds 106, 101, and 114 were semi-serially diluted in dimethyl sulfoxide (DMSO) and then growth medium, and added to the cells. In order to quantitate proliferation of metabolically active cells, plates were incubated for 72 hours for cell lines and 48 hours for primary AML cells prior to addition of water-soluble tetrazolium (WST-1) (Clontech®). Plates were read after four additional hours of incubation at 37° C. using a Bio-Tek Synergy® HT plate reader (Bio-Tele®). Data were analyzed and graphed using GraphPad Prism® Software (GraphPad®). IC50 was defined as the concentration that decreases viable cell numbers by 50%. IC50 values were calculated as mean±standard deviation from at least two independent experiments. If availability of primary blasts was limited, the IC50 was obtained from a single experiment.
To investigate antiproliferative activity of amino-dimeric naphthoquinones against AML cells, an MTT-like cell proliferation assay was performed in the AML cell lines using WST-1 (water soluble tetrazolium salts; Promega®). MOLM-14 and AML-D cells, as well as normal hematopoietic bone marrow cells from a healthy donor, were exposed to a range of concentrations of Compound 101. Human leukemia cells were cultured in the presence of the compound for 72 hours (48 hours for primary cells) and WST-1 reagent was then added. The cells then were monitored for cell growth or the number of cells proliferating and the IC50 calculated. The IC50 is the concentration at which 50% of the cells are not proliferating compared to control cells treated with vehicle. See FIG. 2A, FIG. 2B, and FIG. 2C for representative graphs of these IC50 determinations.

[1] = target: tryptophan-2,3-dioxygenase (TDO) (Homo sapiens, UniProt P48775); assay: TDO activity; type: biochemical
From the text: (§3) Methods were as described and according to known methods.

AML cells [2] = assay: Clonogenicity of AML cells; type: cell-based, human
Procedure: MOLM-14 and THP-1 were treated with either DMSO control or mono-aziridine dimeric naphthoquinone or bis-aziridinyl dimeric naphthoquinone compounds at concentrations of 0.1, 1, 10 and 100 μM (micromolar) for 24 hours. The cells then were washed with growth medium and resuspended in growth medium and methylcellulose with or without DMSO or the treatment compounds. After 7 or 13 days (MOLM-14 or THP-1, respectively), treatment was terminated by addition of 1.0 mg/mL, iodonitrotetrazolium chloride (INT; Sigma Aldrich®) and read 24 hours later with an automated colony counter (Symbiosis®). Data were analyzed and graphed using GraphPad Prism® software.
(§4) Two AML cell lines (MV4-11 & MOLM14) were treated with increasing doses of the clinically used naphthoquinones, atovaquone and vitamin K, as well as with Compound 102; and IC50 curves were generated with respect to cell proliferation as described above.

AML blasts = assay: γH2AX foci in treated AML blasts; type: cell-based
AML cells [3] = assay: Cell proliferation assays, AML cells (lines not given singly); type: cell-based, human; settings: MV4-11 and MOLM14, proliferation IC50
Procedure: as §2, §4

MV4-11 cells [4] = assay: Cell survival assay (trypan blue exclusion), MV4-11; type: cell-based, human
Procedure: MOLM-.14 and THP-1 cells were seeded in 96-well plates and treated with DMSO, mono- and bis-aziridinyl dimeric naphthoquinone compounds, or dimethylamine dimeric naphthoquinone Compound 114 as previously described. Cells were incubated for 72 hours, and then counted using trypan blue exclusion on the Countess® automated cell counter (Life Technologies®). Cell counts were performed in duplicates, and the averages were graphed using GraphPad Prism® software (GraphPad®).
Cell survival was determined using trypan blue exclusion as described above, in which cells are plated and the following day treated similarly to the proliferation assay. Compound 102 (also referred to here as “66”) was effective in decreasing cell number at increasing concentrations of compound in MV4-11 cells.

IDO-2 = target: T1, IDO-2 (Homo sapiens, UniProt Q6ZQW0); assay: IDO-2 activity; type: biochemical
T1 sequence (Q6ZQW0 1-407): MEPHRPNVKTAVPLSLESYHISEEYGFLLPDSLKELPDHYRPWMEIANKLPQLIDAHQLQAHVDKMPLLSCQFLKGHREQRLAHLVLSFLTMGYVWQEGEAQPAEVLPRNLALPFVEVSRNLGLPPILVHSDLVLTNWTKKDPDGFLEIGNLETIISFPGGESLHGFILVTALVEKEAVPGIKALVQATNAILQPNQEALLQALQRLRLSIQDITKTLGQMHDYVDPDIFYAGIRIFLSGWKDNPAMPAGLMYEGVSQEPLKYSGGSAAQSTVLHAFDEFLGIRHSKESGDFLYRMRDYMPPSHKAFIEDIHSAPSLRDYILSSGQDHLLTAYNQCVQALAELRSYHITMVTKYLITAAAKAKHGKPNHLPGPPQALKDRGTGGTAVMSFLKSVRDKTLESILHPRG
From the text: as §3

IDO-1 = IDO-1 (Homo sapiens, UniProt P14902); assay: IDO1 activity assay; type: biochemical
From the text: as §3

MV4-11 cells [5] = assay: WST-1 cell proliferation assay, MV4-11; type: cell-based, human; settings: Homo sapiens, cell proliferation
Procedure: as §1, §2

MV4-11 cells [6] = assay: Cellular reactive oxygen species (H2DCFA), MV4-11; type: cell-based, human
Procedure: MOLM-14 and THP-1 cells in logarithmic growth phase were centrifuged and resuspended in PBS at one million cells per milliliter (mL) of medium. Cells were preloaded with 2′,7′-dichlorodihydrofluorescein diacetate (H2DCFA, Life Technologies®) at a final concentration of 2 μM and incubated at 37° C. in the dark for 25 minutes. Cells were centrifuged and resuspended at one million per mL in phenol red-free RPMI plus 10% FBS and incubated at 37° C. in the dark for 25 minutes. Treatments were prepared at 2× concentrations of […] in complete phenol red-free RPMI and added to each well to yield 1× concentrations of 20, 10, 2, or 0.5 μM. Cells were incubated in the dark at 37° C. and measurement of ROS was performed with a Bio-tek® Synergy HT plate reader at various time points post treatment.
as §4
The amount of reactive oxygen species (ROS) that cells produced upon treatment with Compound 102 then was examined. See results in FIG. 9B. The cells were loaded with the ROS dye H2DCFA and subsequently plated into 96-well plates. […] The relative fluorescence units (RFU) were read at various time points. […]

IDO-1, sequence (P14902 whole entry, species assumed): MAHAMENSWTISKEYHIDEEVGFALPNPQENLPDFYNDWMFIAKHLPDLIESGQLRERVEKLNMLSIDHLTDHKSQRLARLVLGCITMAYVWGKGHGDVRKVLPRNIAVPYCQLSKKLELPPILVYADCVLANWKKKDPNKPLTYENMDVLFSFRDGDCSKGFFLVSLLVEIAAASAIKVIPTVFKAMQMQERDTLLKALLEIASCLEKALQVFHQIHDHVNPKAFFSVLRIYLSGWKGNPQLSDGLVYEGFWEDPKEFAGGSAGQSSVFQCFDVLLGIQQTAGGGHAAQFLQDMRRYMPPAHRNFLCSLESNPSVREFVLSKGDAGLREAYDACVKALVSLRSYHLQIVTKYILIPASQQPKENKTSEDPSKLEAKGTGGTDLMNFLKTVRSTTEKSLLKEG
tryptophan-2,3-dioxygenase (TDO), sequence (P48775 whole entry, species assumed): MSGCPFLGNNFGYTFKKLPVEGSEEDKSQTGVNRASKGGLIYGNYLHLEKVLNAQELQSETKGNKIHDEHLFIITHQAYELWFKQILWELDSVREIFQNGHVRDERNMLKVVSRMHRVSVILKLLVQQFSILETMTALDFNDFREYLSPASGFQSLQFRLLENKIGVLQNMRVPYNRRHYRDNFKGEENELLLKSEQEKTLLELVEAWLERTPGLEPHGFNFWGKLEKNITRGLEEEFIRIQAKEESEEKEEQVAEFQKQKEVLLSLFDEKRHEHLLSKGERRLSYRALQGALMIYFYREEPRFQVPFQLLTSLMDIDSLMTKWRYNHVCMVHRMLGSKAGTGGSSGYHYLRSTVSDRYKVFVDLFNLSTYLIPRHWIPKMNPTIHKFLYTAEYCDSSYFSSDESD

IC50 (MOLM-14 cells; MOLM-14, Table 2, read-out: MOLM14 IC50): 0.16 ± 0.01 µM
IC50 (MOLM-14 cells; MOLM-14, Table 3, read-out: MOLM14 IC50): 0.16 ± 0.01 µM
IC50 (MOLM-14 cells; MOLM-14, Table 7, read-out: IC50 (μM) MOLM-14): 0.16 µM
inhibition of TDO [1]: not
inhibition of IDO-2 (IDO-2): not
inhibition at 1 µM (IDO-1): 37%
inhibition at 10 µM (IDO-1): 79%
IC50 (MV4-11 cells [5]; MV4-11, Table 2, read-out: MV411 IC50): 0.2 ± 0.2 µM
IC50 (MV4-11 cells [5]; MV4-11, Table 3, read-out: MV411 IC50): 0.2 ± 0.2 µM
IC50 (MV4-11 cells [5]; MV4-11, Table 7, read-out: IC50 (μM) MV411): 0.2 µM
Structure (SMILES): O=C1C(NCCO)=C(C2=C(NCCO)C(=O)c3ccccc3C2=O)C(=O)c2ccccc21 [Compound 102, 3,3′-[(2-hydroxyethyl)amino]-2,2′-binaphthalenyl-1,1′,4,4′-tetrone]
inhibition of clonogenicity of AML cells (AML cells [2]): effectively inhibited clonogenicity of AML cells in a dose-dependent manner; also recorded: potent (nanomolar) inhibition of colony formation
DNA damage (γH2AX foci) (AML blasts): concomitant increase in DNA damage
potency relative to other naphthoquinones (atovaquone, vitamin K) against AML cells (AML cells [3]): 25-30 fold
cell survival, MV4-11 (MV4-11 cells [4]): dose-dependent reduction in cell survival
ROS production (MV4-11 cells [6]; Example 13, cells not named in the block, 2-6 hours): dose-dependent increase in ROS production
ROS levels, MV4-11 (MV4-11 cells [6]; at IC50 concentration): ROS levels significantly peaked after 2 hours and returned to baseline within 24 hours
